Test results reported in patent US12226412B2, “Heteroaryl-ketone fused azadecalin glucocorticoid receptor modulators” (Corcept Therapeutics, Inc., priority 2012, dated 2025).
Like-named read-outs stand apart in the source and are kept apart here.

Columns and labels:
human recombinant GR = biological target: T1, human recombinant GR (Homo sapiens, UniProt P04150); experiment: Human glucocorticoid receptor (GR) fluorescence polarisation (FP) binding assay
T1 construct: purchased PanVera P2812
T1 sequence (P04150 1-777): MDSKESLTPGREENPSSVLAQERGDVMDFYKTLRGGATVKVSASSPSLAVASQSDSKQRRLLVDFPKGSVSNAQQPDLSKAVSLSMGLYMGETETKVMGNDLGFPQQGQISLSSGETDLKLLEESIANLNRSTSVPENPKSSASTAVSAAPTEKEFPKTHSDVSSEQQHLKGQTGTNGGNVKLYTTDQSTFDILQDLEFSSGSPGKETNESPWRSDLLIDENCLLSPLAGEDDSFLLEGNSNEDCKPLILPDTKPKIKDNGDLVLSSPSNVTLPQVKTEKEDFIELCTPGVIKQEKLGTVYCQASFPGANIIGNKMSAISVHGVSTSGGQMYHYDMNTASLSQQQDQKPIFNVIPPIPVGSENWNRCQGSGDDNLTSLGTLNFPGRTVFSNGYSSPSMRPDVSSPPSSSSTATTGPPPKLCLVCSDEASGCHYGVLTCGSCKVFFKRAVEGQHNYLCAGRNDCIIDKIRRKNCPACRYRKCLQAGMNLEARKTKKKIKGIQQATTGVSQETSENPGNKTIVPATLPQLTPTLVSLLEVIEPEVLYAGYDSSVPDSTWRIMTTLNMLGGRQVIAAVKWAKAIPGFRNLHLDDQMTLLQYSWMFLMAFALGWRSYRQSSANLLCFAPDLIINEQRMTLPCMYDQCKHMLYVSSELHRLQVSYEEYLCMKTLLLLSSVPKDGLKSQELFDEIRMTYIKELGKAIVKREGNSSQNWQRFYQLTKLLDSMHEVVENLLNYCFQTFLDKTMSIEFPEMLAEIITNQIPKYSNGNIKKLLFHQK
Procedure, shortened: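 Competition fluorescence polarisation: 0.5 nM GS Red labelled glucocorticoid and 1 nM recombinant human GR with 8-point half-log compound series, 1% DMSO, 4 h room temperature, potassium phosphate pH 7.4 buffer with molybdate, EDTA, DTT. Affinity derived from the drop in polarisation, normalised to blank wells.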

[1] = tested on: induction of TAT by dexamethasone in HepG2 cells; experiment: HepG2 tyrosine aminotransferase (TAT) assay; format: cell-based, human
[2] = human recombinant GR, fluorescence polarisation binding assay, read-out: GR binding
[3] = HepG2 cells, challenge of 100 nM dexamethasone, Ki from IC50 by Cheng and Prusoff equation

Compound | Ki (human recombinant GR; [2]) | Ki [1, 3] | Ki (human recombinant GR) | Ki [1]
O=C(c1nccs1)[C@]12Cc3cnn(-c4ccc(F)cc4)c3C=C1CCN(S(=O)(=O)CC1CCCO1)C2 (mixture of isomers) [Example 2B, ((4a R)-1-(4-fluorophenyl)-6-((((R/S)-tetrahydrofuran-2-yl)methyl)sulfonyl)-4,4a,5,6,7,8-hexahydro-1H-pyrazolo[3,4-g]isoquinolin-4a-yl)(thiazol-2-yl)methanone] | 0.5 to 1 nM | ≥ 100 nM |  | 
Cc1ccnc(C(=O)[C@]23Cc4cnn(-c5ccc(F)cc5)c4C=C2CCN(S(=O)(=O)c2cnn(C)c2C)C3)c1 [Example 11AI, (R)-(6-((1,5-dimethyl-1H-pyrazol-4-yl)sulfonyl)-1-(4-fluorophenyl)-4,4a,5,6,7,8-hexahydro-1H-pyrazolo[3,4-g]isoquinolin-4a-yl)(4-methylpyridin-2-yl)methanone] | < 0.5 nM | < 20 nM |  | 
COCCn1cc(S(=O)(=O)N2CCC3=Cc4c(cnn4-c4ccc(F)cc4)C[C@]3(C(=O)c3ccccn3)C2)cn1 [Example 11CB, (R)-(1-(4-fluorophenyl)-6-((1-(2-methoxyethyl)-1H-pyrazol-4-yl)sulfonyl)-4,4a,5,6,7,8-hexahydro-1H-pyrazolo[3,4-g]isoquinolin-4a-yl)(pyridin-2-yl)methanone] | < 0.5 nM | < 20 nM |  | 
O=C(c1nccs1)[C@]12Cc3cnn(-c4ccc(F)cc4)c3C=C1CCN(S(=O)(=O)c1ccc(N3CC[C@@H](F)C3)nc1)C2 [Example 9, ((R)-1-(4-fluorophenyl)-6-((6-((R)-3-fluoropyrrolidin-1-yl)pyridin-3-yl)sulfonyl)-4,4a,5,6,7,8-hexahydro-1H-pyrazolo[3,4-g]isoquinolin-4a-yl)(thiazol-2-yl)methanone] | < 0.5 nM | ≥ 100 nM |  | 
O=C(c1ccccn1)[C@]12Cc3cnn(-c4ccc(F)cc4)c3C=C1CCN(S(=O)(=O)c1ccc(F)c(Cl)c1)C2 [Example 11R, (R)-(6-((3-chloro-4-fluorophenyl)sulfonyl)-1-(4-fluorophenyl)-4,4a,5,6,7,8-hexahydro-1H-pyrazolo[3,4-g]isoquinolin-4a-yl)(pyridin-2-yl)methanone] | < 0.5 nM | < 20 nM |  | 
N#Cc1ccc(S(=O)(=O)N2CCC3=Cc4c(cnn4-c4ccc(F)cc4)C[C@]3(C(=O)c3ccccn3)C2)cc1 [Example 2Q, (R)-4-((1-(4-fluorophenyl)-4a-picolinoyl-4a,5,7,8-tetrahydro-1H-pyrazolo[3,4-g]isoquinolin-6 (4H)-yl)sulfonyl)benzonitrile] | < 0.5 nM | 20 to 100 nM |  | 
COc1c(F)cc(S(=O)(=O)N2CCC3=Cc4c(cnn4-c4ccc(F)cc4)C[C@]3(C(=O)c3ccccn3)C2)cc1F [Example 15D, (R)-(6-((3,5-difluoro-4-methoxyphenyl)sulfonyl)-1-(4-fluorophenyl)-4,4a,5,6,7,8-hexahydro-1H-pyrazolo[3,4-g]isoquinolin-4a-yl)(pyridin-2-yl)methanone] | 0.5 to 1 nM | < 20 nM |  | 
Cc1csc(C(=O)[C@]23Cc4cnn(-c5ccc(F)cc5)c4C=C2CCN(S(=O)(=O)c2cccc(C(F)(F)F)c2)C3)n1 [Example 12M, (R)-(1-(4-fluorophenyl)-6-((3-(trifluoromethyl)phenyl)sulfonyl)-4,4a,5,6,7,8-hexahydro-1H-pyrazolo[3,4-g]isoquinolin-4a-yl)(4-methylthiazol-2-yl)methanone] | 0.5 to 1 nM | 20 to 100 nM |  | 
O=C(c1nccs1)[C@]12Cc3cnn(-c4ccc(F)cc4)c3C=C1CCN(S(=O)(=O)c1ccc(F)cc1)C2 [Example 5, (R)-(1-(4-fluorophenyl)-6-((4-fluorophenyl)sulfonyl)-4,4a,5,6,7,8-hexahydro-1H-pyrazolo[3,4-g]isoquinolin-4a-yl)(thiazol-2-yl)methanone] | < 0.5 nM | 20 to 100 nM |  | 
Cn1cc(S(=O)(=O)N2CCC3=Cc4c(cnn4-c4ccc(F)cc4)C[C@]3(C(=O)c3ccccn3)C2)c(C(F)(F)F)n1 [Example 11BP, (R)-(1-(4-fluorophenyl)-6-((1-methyl-3-(trifluoromethyl)-1H-pyrazol-4-yl)sulfonyl)-4,4a,5,6,7,8-hexahydro-1H-pyrazolo[3,4-g]isoquinolin-4a-yl)(pyridin-2-yl)methanone] | < 0.5 nM | ≥ 100 nM |  | 
O=C(c1ncco1)[C@]12Cc3cnn(-c4ccc(F)cc4)c3C=C1CCN(S(=O)(=O)c1ccc(C(F)(F)F)cc1)C2 [Example 1F, (R)-(1-(4-fluorophenyl)-6-((4-(trifluoromethyl)phenyl)sulfonyl)-4,4a,5,6,7,8-hexahydro-1H-pyrazolo[3,4-g]isoquinolin-4a-yl)(oxazol-2-yl)methanone] | < 0.5 nM | 20 to 100 nM |  | 
O=C(c1ccccn1)[C@]12Cc3cnn(-c4ccc(F)cc4)c3C=C1CCN(S(=O)(=O)c1cc(F)c(F)c(F)c1)C2 [Example 11Q, (R)-(1-(4-fluorophenyl)-6-((3,4,5-trifluorophenyl)sulfonyl)-4,4a,5,6,7,8-hexahydro-1H-pyrazolo[3,4-g]isoquinolin-4a-yl)(pyridin-2-yl)methanone] | < 0.5 nM | < 20 nM |  | 
Cc1cc(C)cc(S(=O)(=O)N2CCC3=Cc4c(cnn4-c4ccc(F)cc4)C[C@]3(C(=O)c3ccccn3)C2)c1 [Example 11N, (R)-(6-((3,5-dimethylphenyl)sulfonyl)-1-(4-fluorophenyl)-4,4a,5,6,7,8-hexahydro-1H-pyrazolo[3,4-g]isoquinolin-4a-yl)(pyridin-2-yl)methanone] | < 0.5 nM | < 20 nM |  | 
CCn1nncc1S(=O)(=O)N1CCC2=Cc3c(cnn3-c3ccc(F)cc3)C[C@]2(C(=O)c2cc(C(F)(F)F)ccn2)C1 [Example 11CL, (R)-(6-((1-ethyl-1H-1,2,3-triazol-5-yl)sulfonyl)-1-(4-fluorophenyl)-4,4a,5,6,7,8-hexahydro-1H-pyrazolo[3,4-g]isoquinolin-4a-yl)(4-(trifluoromethyl)pyridin-2-yl)methanone] | > 1 nM | 20 to 100 nM |  | 
Cn1ncc(S(=O)(=O)N2CCC3=Cc4c(cnn4-c4ccc(F)cc4)C[C@]3(C(=O)c3nccs3)C2)n1 (single isomer, unassigned) [Example 12Z] | < 0.5 nM | ≥ 100 nM |  | 
O=C(c1ccccn1)[C@]12Cc3cnn(-c4ccc(F)cc4)c3C=C1CCN(S(=O)(=O)c1ccc(Cl)c(C(F)(F)F)c1)C2 [Example 11BF, (R)-(6-((4-chloro-3-(trifluoromethyl)phenyl)sulfonyl)-1-(4-fluorophenyl)-4,4a,5,6,7,8-hexahydro-1H-pyrazolo[3,4-g]isoquinolin-4a-yl)(pyridin-2-yl)methanone] | < 0.5 nM | 20 to 100 nM |  | 
Cc1nc(S(=O)(=O)N2CCC3=Cc4c(cnn4-c4ccc(F)cc4)C[C@]3(C(=O)c3cc(C(F)(F)F)ccn3)C2)cn1C [Example 11BV, (R)-(6-((1,2-dimethyl-1H-imidazol-4-yl)sulfonyl)-1-(4-fluorophenyl)-4,4a,5,6,7,8-hexahydro-1H-pyrazolo[3,4-g]isoquinolin-4a-yl)(4-(trifluoromethyl)pyridin-2-yl)methanone] | < 0.5 nM | < 20 nM |  | 
O=C(c1ccccn1)[C@]12Cc3cnn(-c4ccc(F)cc4)c3C=C1CCN(S(=O)(=O)c1ccc(F)cc1)C2 [Example 2, (R)-(1-(4-fluorophenyl)-6-((4-fluorophenyl)sulfonyl)-4,4a,5,6,7,8-hexahydro-1H-pyrazolo[3,4-g]isoquinolin-4a-yl)(pyridin-2-yl)methanone] |  |  | < 0.5 nM | < 20 nM
